Experimental data as given in US9783527B2, “Indazole ureas and method of use” (AbbVie Inc., priority 2014, dated 2017).

Target: human Nav1.7 (Homo sapiens (Human), UniProt Q15858)
Assay: FRET-based membrane potential assay, recombinant human sodium channel Nav1.7
Assay type: cell-based
Settings: HEK293 cells stably expressing recombinant human Nav1.7; depolarization with veratridine (EC80) + scorpion venom
Method in brief: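 IC50 derived by four-parameter Hill fit of percent inhibition of depolarization, measured as peak F440-480/F565-625 ratio over baseline. Stable human Nav1.7 HEK293 cells, dye-loaded with CC2-DMPE and DiSBAC2(3)/VABSC-1 at room temperature, received compound 3 min ahead of veratridine (EC80) plus scorpion venom.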

Sequence of human Nav1.7 (Q15858 whole entry): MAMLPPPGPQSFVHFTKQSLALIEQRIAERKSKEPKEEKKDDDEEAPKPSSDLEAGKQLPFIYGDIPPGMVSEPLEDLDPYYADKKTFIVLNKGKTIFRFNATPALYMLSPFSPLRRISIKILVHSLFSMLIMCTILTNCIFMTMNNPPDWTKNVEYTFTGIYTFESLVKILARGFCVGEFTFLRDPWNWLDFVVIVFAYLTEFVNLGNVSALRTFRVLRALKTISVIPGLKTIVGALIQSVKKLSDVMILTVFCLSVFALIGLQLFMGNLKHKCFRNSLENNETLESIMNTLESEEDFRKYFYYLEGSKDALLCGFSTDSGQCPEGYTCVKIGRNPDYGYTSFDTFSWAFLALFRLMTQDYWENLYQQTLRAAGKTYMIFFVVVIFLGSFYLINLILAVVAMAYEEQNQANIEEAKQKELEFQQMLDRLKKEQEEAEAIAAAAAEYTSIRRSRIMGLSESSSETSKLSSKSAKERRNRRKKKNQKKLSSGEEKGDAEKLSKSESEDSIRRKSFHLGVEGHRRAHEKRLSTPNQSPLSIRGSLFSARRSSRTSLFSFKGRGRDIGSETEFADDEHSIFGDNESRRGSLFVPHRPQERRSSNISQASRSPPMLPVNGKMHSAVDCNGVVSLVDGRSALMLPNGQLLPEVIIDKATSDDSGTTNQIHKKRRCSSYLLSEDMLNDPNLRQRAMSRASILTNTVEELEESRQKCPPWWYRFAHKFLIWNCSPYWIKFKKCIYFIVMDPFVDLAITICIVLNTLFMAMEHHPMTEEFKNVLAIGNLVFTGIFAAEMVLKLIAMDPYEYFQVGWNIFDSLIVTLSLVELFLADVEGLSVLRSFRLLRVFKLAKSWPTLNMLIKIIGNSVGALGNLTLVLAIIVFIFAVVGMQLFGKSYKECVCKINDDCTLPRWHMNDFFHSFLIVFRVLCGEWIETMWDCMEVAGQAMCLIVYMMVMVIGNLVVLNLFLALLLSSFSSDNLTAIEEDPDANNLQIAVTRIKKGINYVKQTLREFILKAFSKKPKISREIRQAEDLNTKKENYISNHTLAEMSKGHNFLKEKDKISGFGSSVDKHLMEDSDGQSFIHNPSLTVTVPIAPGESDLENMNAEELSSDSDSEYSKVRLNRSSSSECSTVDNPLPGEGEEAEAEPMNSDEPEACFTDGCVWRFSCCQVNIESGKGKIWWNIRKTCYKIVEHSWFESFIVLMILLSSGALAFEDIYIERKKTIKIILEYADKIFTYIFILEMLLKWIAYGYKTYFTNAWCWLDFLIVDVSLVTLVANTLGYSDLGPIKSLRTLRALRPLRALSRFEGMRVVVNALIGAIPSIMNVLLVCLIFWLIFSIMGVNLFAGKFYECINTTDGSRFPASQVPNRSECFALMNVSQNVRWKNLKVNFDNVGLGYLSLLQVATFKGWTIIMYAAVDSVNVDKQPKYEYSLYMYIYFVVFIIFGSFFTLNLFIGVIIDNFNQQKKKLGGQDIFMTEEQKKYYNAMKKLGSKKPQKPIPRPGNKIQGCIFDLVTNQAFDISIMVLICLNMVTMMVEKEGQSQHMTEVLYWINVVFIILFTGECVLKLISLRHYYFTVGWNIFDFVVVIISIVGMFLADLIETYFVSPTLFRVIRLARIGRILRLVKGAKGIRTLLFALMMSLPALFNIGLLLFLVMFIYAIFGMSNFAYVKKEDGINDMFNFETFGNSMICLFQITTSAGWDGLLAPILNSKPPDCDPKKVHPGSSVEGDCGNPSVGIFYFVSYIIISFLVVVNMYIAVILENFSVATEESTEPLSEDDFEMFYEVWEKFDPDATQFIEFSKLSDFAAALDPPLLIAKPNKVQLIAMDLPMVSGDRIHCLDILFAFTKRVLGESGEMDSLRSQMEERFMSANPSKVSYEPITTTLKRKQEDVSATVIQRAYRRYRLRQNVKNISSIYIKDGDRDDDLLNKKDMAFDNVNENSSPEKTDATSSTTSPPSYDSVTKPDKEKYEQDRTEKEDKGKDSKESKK

SMILES | IC50
C[C@@]1(c2cccc(F)c2)C[C@H](N2CCN(c3cccc4c3cnn4-c3ccccc3F)C2=O)CO1 [Example 195, 2,5-anhydro-1,3,4-trideoxy-2-(3-fluorophenyl)-4-{3-[1-(2-fluorophenyl)-1H-indazol-4-yl]-2-oxoimidazolidin-1-yl}-D-erythro-pentitol] | 1390 nM
O=C1N(c2cccc3c2cnn3-c2ccccc2F)CCN1[C@H]1CO[C@H](c2cccc(F)c2)C1 [Example 196, 1-[1-(2-fluorophenyl)-1H-indazol-4-yl]-3-[(3R,5S)-5-(3-fluorophenyl)tetrahydrofuran-3-yl]imidazolidin-2-one] | 4310 nM
O=C1N(Cc2cc(F)ccc2F)CCN1c1cccc2c1cnn2-c1ccccc1F [Example 197, 1-(2,5-difluorobenzyl)-3-[1-(2-fluorophenyl)-1H-indazol-4-yl]imidazolidin-2-one] | 2140 nM
O=C1N(Cc2cccnc2)CCN1c1cccc2c1cnn2-c1ccccc1F [Example 198, 1-[1-(2-fluorophenyl)-1H-indazol-4-yl]-3-(pyridin-3-ylmethyl)imidazolidin-2-one] | 1240 nM
Cc1cc(CN2CCN(c3cccc4c3cnn4-c3ccccc3F)C2=O)no1 [Example 199, 1-[1-(2-fluorophenyl)-1H-indazol-4-yl]-3-[(5-methyl-1,2-oxazol-3-yl)methyl]imidazolidin-2-one] | 2970 nM
O=C1N(CC2COC2)CCN1c1cccc2c1cnn2-c1ccccc1F [Example 200, 1-[1-(2-fluorophenyl)-1H-indazol-4-yl]-3-(oxetan-3-ylmethyl)imidazolidin-2-one] | 3610 nM
N#C[C@H]1CCCN1C(=O)CN1CCN(c2cccc3c2cnn3-c2ccccc2F)C1=O [Example 201, (2R)-1-({3-[1-(2-fluorophenyl)-1H-indazol-4-yl]-2-oxoimidazolidin-1-yl}acetyl)pyrrolidine-2-carbonitrile] | 661 nM
O=C1N(CC(=O)N2CC3CCC2C3)CCN1c1cccc2c1cnn2-c1ccccc1F (centres unmarked) [Example 202, 1-[2-(2-azabicyclo[2.2.1]hept-2-yl)-2-oxoethyl]-3-[1-(2-fluorophenyl)-1H-indazol-4-yl]imidazolidin-2-one] | 681 nM
C[C@@]1(c2cccc(F)c2)C[C@@H](N2CCN(c3cccc4c3cnn4-c3ccccc3F)C2=O)CO1 [Example 203, 2,5-anhydro-1,3,4-trideoxy-2-(3-fluorophenyl)-4-{3-[1-(2-fluorophenyl)-1H-indazol-4-yl]-2-oxoimidazolidin-1-yl}-L-threo-pentitol] | 3670 nM
O=C1N(c2cccc3c2cnn3-c2ccccc2F)CCN1C1CCC(O)C1 (centres unmarked) [Example 204, 1-[1-(2-fluorophenyl)-1H-indazol-4-yl]-3-(3-hydroxycyclopentyl)imidazolidin-2-one] | 3410 nM
O=C(CN1CCN(c2cccc3c2cnn3-c2ccccc2F)C1=O)N1CC(F)C(F)C1 (centres unmarked) [Example 206, 1-[2-(3,4-difluoropyrrolidin-1-yl)-2-oxoethyl]-3-[1-(2-fluorophenyl)-1H-indazol-4-yl]imidazolidin-2-one] | 1060 nM
O=C1N(c2cncc(N3CCOCC3)c2)CCN1c1cccc2c1cnn2-c1ccccc1F [Example 207, 1-[1-(2-fluorophenyl)-1H-indazol-4-yl]-3-[5-(morpholin-4-yl)pyridin-3-yl]imidazolidin-2-one] | 1870 nM
O=C1N(c2cccnn2)CCN1c1cccc2c1cnn2-c1ccccc1F [Example 208, 1-[1-(2-fluorophenyl)-1H-indazol-4-yl]-3-(pyridazin-3-yl)imidazolidin-2-one] | 3260 nM
O=C(CN1CCN(c2cccc3c2cnn3-c2ccccc2F)C1=O)NCC1CC1 [Example 209, N-(cyclopropylmethyl)-2-{3-[1-(2-fluorophenyl)-1H-indazol-4-yl]-2-oxoimidazolidin-1-yl}acetamide] | 1060 nM
O=C1N(Cc2ccncc2)CCN1c1cccc2c1cnn2-c1ccccc1F [Example 210, 1-[1-(2-fluorophenyl)-1H-indazol-4-yl]-3-(pyridin-4-ylmethyl)imidazolidin-2-one] | 3330 nM
Cc1nc(CN2CCN(c3cccc4c3cnn4-c3ccccc3F)C2=O)co1 [Example 211, 1-[1-(2-fluorophenyl)-1H-indazol-4-yl]-3-[(2-methyl-1,3-oxazol-4-yl)methyl]imidazolidin-2-one] | 1900 nM
O=C1N(CC(=O)N2[C@H]3CC[C@@H]2CC3)CCN1c1cccc2c1cnn2-c1ccccc1F [Example 212, 1-{2-[(1s,4s)-7-azabicyclo[2.2.1]hept-7-yl]-2-oxoethyl}-3-[1-(2-fluorophenyl)-1H-indazol-4-yl]imidazolidin-2-one] | 1140 nM
CC1(CN2CCN(c3cccc4c3cnn4-c3ccccc3F)C2=O)COC1 [Example 213, 1-[1-(2-fluorophenyl)-1H-indazol-4-yl]-3-[(3-methyloxetan-3-yl)methyl]imidazolidin-2-one] | 3650 nM
CO[C@H](CC(C)C)CN1CCN(c2cccc3c2cnn3-c2ccccc2F)C1=O [Example 214, 1-[1-(2-fluorophenyl)-1H-indazol-4-yl]-3-[(2R)-2-methoxy-4-methylpentyl]imidazolidin-2-one] | 2020 nM

SMILES | IC50
CO[C@@H](CC(C)C)CN1CCN(c2cccc3c2cnn3-c2ccccc2F)C1=O [Example 215, 1-[1-(2-fluorophenyl)-1H-indazol-4-yl]-3-[(2S)-2-methoxy-4-methylpentyl]imidazolidin-2-one] | 1080 nM
CC(=O)N1CC(CN2CCN(c3cccc4c3cnn4-c3ccccc3F)C2=O)C1 [Example 216, 1-[(1-acetylazetidin-3-yl)methyl]-3-[1-(2-fluorophenyl)-1H-indazol-4-yl]imidazolidin-2-one] | 20000 nM
Cc1nc(CN2CCN(c3cccc4c3cnn4-c3ccccc3F)C2=O)cs1 [Example 217, 1-[1-(2-fluorophenyl)-1H-indazol-4-yl]-3-[(2-methyl-1,3-thiazol-4-yl)methyl]imidazolidin-2-one] | 1070 nM
O=C1N(Cc2ncccn2)CCN1c1cccc2c1cnn2-c1ccccc1F [Example 218, 1-[1-(2-fluorophenyl)-1H-indazol-4-yl]-3-(pyrimidin-2-ylmethyl)imidazolidin-2-one] | 2760 nM
Cc1cnc(CN2CCN(c3cccc4c3cnn4-c3ccccc3F)C2=O)nc1 [Example 219, 1-[1-(2-fluorophenyl)-1H-indazol-4-yl]-3-[(5-methylpyrimidin-2-yl)methyl]imidazolidin-2-one] | 5210 nM
O=C1N(CCc2cccnc2)CCN1c1cccc2c1cnn2-c1ccccc1F [Example 220, 1-[1-(2-fluorophenyl)-1H-indazol-4-yl]-3-[2-(pyridin-3-yl)ethyl]imidazolidin-2-one] | 1840 nM
O=C1N(c2nccs2)CCN1c1cccc2c1cnn2-c1ccccc1F [Example 221, 1-[1-(2-fluorophenyl)-1H-indazol-4-yl]-3-(1,3-thiazol-2-yl)imidazolidin-2-one] | 9500 nM
O=C1N(Cc2ccncn2)CCN1c1cccc2c1cnn2-c1ccccc1F [Example 222, 1-[1-(2-fluorophenyl)-1H-indazol-4-yl]-3-(pyrimidin-4-ylmethyl)imidazolidin-2-one] | 11200 nM
O=C1N(CC2CCO2)CCN1c1cccc2c1cnn2-c1ccccc1F (centres unmarked) [Example 223, 1-[1-(2-fluorophenyl)-1H-indazol-4-yl]-3-(oxetan-2-ylmethyl)imidazolidin-2-one] | 11200 nM
O=C1N(c2cccc3c2cnn3-c2ccccc2F)CCN1[C@H]1CCOC1 [Example 224, 1-[1-(2-fluorophenyl)-1H-indazol-4-yl]-3-[(3S)-tetrahydrofuran-3-yl]imidazolidin-2-one] | 3600 nM
O=C1N(Cc2cocn2)CCCN1c1cccc2c1cnn2-c1ccccc1F [Example 225, 1-[1-(2-fluorophenyl)-1H-indazol-4-yl]-3-(1,3-oxazol-4-ylmethyl)tetrahydropyrimidin-2(1H)-one] | 14000 nM
O=C1N(c2cnccn2)CCN1c1cccc2c1cnn2-c1ccccc1F [Example 226, 1-[1-(2-fluorophenyl)-1H-indazol-4-yl]-3-(pyrazin-2-yl)imidazolidin-2-one] | 3370 nM
Cc1nc(CN2CCN(c3cccc4c3cnn4-c3ccccc3F)C2=O)c(C)o1 [Example 227, 1-[(2,5-dimethyl-1,3-oxazol-4-yl)methyl]-3-[1-(2-fluorophenyl)-1H-indazol-4-yl]imidazolidin-2-one] | 871 nM
Cc1cncc(CN2CCN(c3cccc4c3cnn4-c3ccccc3F)C2=O)c1 [Example 228, 1-[1-(2-fluorophenyl)-1H-indazol-4-yl]-3-[(5-methylpyridin-3-yl)methyl]imidazolidin-2-one] | 1090 nM
O=C1N(CC2(OCc3ccccc3)CC2)CCN1c1cccc2c1cnn2-c1ccccc1F [Example 229, 1-{[1-(benzyloxy)cyclopropyl]methyl}-3-[1-(2-fluorophenyl)-1H-indazol-4-yl]imidazolidin-2-one] | 9080 nM
COc1cncc(N2CCN(c3cccc4c3cnn4-c3ccccc3F)C2=O)c1 [Example 230, 1-[1-(2-fluorophenyl)-1H-indazol-4-yl]-3-(5-methoxypyridin-3-yl)imidazolidin-2-one] | 3730 nM
O=C1N(Cc2cnco2)CCN1c1cccc2c1cnn2-c1ccccc1F [Example 231, 1-[1-(2-fluorophenyl)-1H-indazol-4-yl]-3-(1,3-oxazol-5-ylmethyl)imidazolidin-2-one] | 3650 nM
O=C1C(N2CCN(c3cccc4c3cnn4-c3ccccc3F)C2=O)CCN1Cc1ccccc1 (centres unmarked) [Example 232, 1-(1-benzyl-2-oxopyrrolidin-3-yl)-3-[1-(2-fluorophenyl)-1H-indazol-4-yl]imidazolidin-2-one] | 1150 nM
CC(C)(C)c1cnc(CN2CCN(c3cccc4c3cnn4-c3ccccc3F)C2=O)o1 [Example 233, 1-[(5-tert-butyl-1,3-oxazol-2-yl)methyl]-3-[1-(2-fluorophenyl)-1H-indazol-4-yl]imidazolidin-2-one] | 1020 nM
